Results on two compounds are retold here after patent US20060160756A1, “Treatment and prevention of multi-drug resistance” (priority 2004, published 2006).

Where two headings read alike, the source gives them in different places.

The subject of data set [1] is K562/adriamycin-resistant cells. Nature of the data set: MTT assay: dofediquar effect on ADM cytotoxicity / growth of MDR cells. The data set is classed as cell-based. The conditions noted are these: for Growth rate (% of control): 2nd incubation (24 hr) without MS-209, MS-209 3 μM where present. Background: Tetrazolium assays rely on reduction of a dye to a coloured formazan, in cell work by metabolically active cells.

The nature of data set [2]: Pharmacokinetics of dofediquar after single oral administration to fasted healthy male volunteers. The data set is classed as in vivo, healthy male Japanese adults. The conditions noted are these: for AUC / Cmax / Tmax / t½: mean ± S.D. As to the method:
The pharmacokinetic parameters of dofediquar (MS-209) are investigated in fasted healthy male Japanese adults. The study design is described in Table 2. The plasma concentrations of dofediquar after single oral administration of increasing doses from 100 to 1200 mg to fasted healthy male Japanese adults is illustrated in FIGS. 2 and 3.

Data set [3] is described as follows: Concentrations of dofediquar in plasma and tumor tissue after single oral administration in colon 26-bearing mice. The data set is classed as in vivo. The conditions noted are these: for Concentration of MS-209, Plasma / Concentration of MS-209, Tumor: mean ± SD of N = 3.
Data set [4] deals with drug-resistant cancer cell lines. Description: In vitro studies using drug-resistant cancer cell lines (effective concentration). The data set is classed as cell-based. How it is done:
The effective concentration of dofediquar of about 3 μM (ca. 2 μg/mL) indicated in in vitro studies using drug-resistant cancer cell lines, is achieved at doses of 300 mg or higher.

Setting [5] is: 100 mg single oral dose, fasted.
Where [6] appears, read: 300 mg single oral dose, fasted.
[7] abbreviates: 600 mg single oral dose, fasted.
Where [8] appears, read: 900 mg single oral dose, fasted.
Setting [9] is: 1200 mg single oral dose, fasted.
[10] abbreviates: single oral doses 100 to 1200 mg.
Where [11] appears, read: 0.5 h after single oral 200 mg/kg.
[12] abbreviates: 1 h after single oral 200 mg/kg.
The mark [13] stands for this setting: 2 h after single oral 200 mg/kg.
[14] abbreviates: 5 h after single oral 200 mg/kg.
The mark [15] stands for this setting: 24 h after single oral 200 mg/kg.

The AUC is the area under the concentration-time curve, a measure of exposure. As usually defined, the Cmax is the highest concentration seen after dosing. Usually Tmax stands for the time from dosing to the highest level. In general, t½ refers to the time in which the quantity being followed falls by half. Turning to `O=C(C(c1ccccc1)c1ccccc1)N1CCN(CC(O)COc2cccc3ncccc23)CC1` (stereo not drawn) [dofediquar], the “Cell growth inhibition with vs without dofediquar during the 2nd incubation” value in data set [1] (co-treated with adriamycin (100-300 ng/ml) and dofediquar (3 μM), then 2nd incubation (24 hr) with dofediquar alone) is “slightly more inhibited”. The “Enhancement of ADM cytotoxicity” value in data set [1] (pretreated with 3 μM dofediquar for 24 hours, washed away, then ADM alone for 72 hours (FIG. 1)) is listed as “does not show an enhancement of ADM cytotoxicity”. Besides, the AUC in data set [2] (setting [5]) was determined as 720 ± 210 ng·h/mL; in data set [2] (setting [6]), 7290 ± 2540 ng·h/mL; in data set [2] (setting [7]), 32470 ± 5940 ng·h/mL; in data set [2] (setting [8]), 62900 ± 9670 ng·h/mL; in data set [2] (setting [9]), 105390 ± 20100 ng·h/mL. Moreover, the Cmax in data set [2] (setting [5]) stood at 470 ± 200 ng/mL; in data set [2] (setting [6]), 2700 ± 740 ng/mL; in data set [2] (setting [7]), 10110 ± 2140 ng/mL; in data set [2] (setting [8]), 14030 ± 2480 ng/mL; in data set [2] (setting [9]), 20990 ± 2150 ng/mL. Moreover, the Tmax in data set [2] (setting [5]) was 1.04 ± 0.40 h; in data set [2] (setting [6]), 1.04 ± 0.40 h; in data set [2] (setting [7]), 0.75 ± 0.22 h; in data set [2] (setting [8]), 1.67 ± 0.68 h; in data set [2] (setting [9]), 1.00 ± 0.27 h. The t½ in data set [2] (setting [5]) was found to be 0.89 ± 0.37 h; in data set [2] (setting [6]), 1.17 ± 0.25 h; in data set [2] (setting [7]), 2.25 ± 0.47 h; in data set [2] (setting [8]) it was 2.39 ± 0.37 h; in data set [2] (setting [9]), 3.10 ± 0.31 h. Also, the Detection in plasma entry in data set [2] (dose of 10 mg, single oral) is reported as “not detected”; in data set [2] (dose of 30 mg, single oral), “detected in one of 6 subjects”. Besides, the “Manner of decline of plasma concentration after the peak” value in data set [2] (doses of 100 mg or higher, single oral) is reported as “declines in a monophasic manner”. For the same compound, in data set [2] (single oral dose, fasted), the “Dose at which the effective concentration of about 3 μM (ca. 2 μg/mL) is achieved in plasma” value was not below 300 mg. The “Dose dependence of Cmax and AUC” value in data set [2] (setting [10]) is “increase more steeply than expected from the dose increase”. Moreover, in data set [2] (setting [10]), the “Dose dependence of Tmax” value is given as “does not change”. Moreover, in data set [2] (setting [10]), the “Dose dependence of half-life” value is given as “increases with increasing dose”. The “Concentration of MS-209, Plasma” value in data set [3] (setting [11]) amounted to 25600 ± 9300 ng/mL; in data set [3] (setting [12]), 33000 ± 6300 ng/mL; in data set [3] (setting [13]) it was 27300 ± 7000 ng/mL; in data set [3] (setting [14]), 24600 ± 10000 ng/mL; in data set [3] (setting [15]) it was 610 ± 410 ng/mL. The “Concentration of MS-209, Tumor” value came to 15.9 ± 8.1 µg/g in data set [3] (setting [11]); 30.6 ± 7.5 µg/g in data set [3] (setting [12]); 28.0 ± 9.4 µg/g in data set [3] (setting [13]); 25.8 ± 10 µg/g in data set [3] (setting [14]); 0.52 ± 0.49 µg/g in data set [3] (setting [15]). Further, the AUC, Plasma in data set [3] (single oral 200 mg/kg) came to 368000 ng·h/mL. The AUC, Tumor in data set [3] (single oral 200 mg/kg) worked out at 376 µg·h/g. In addition, the Effective concentration result in data set [4] was “about 3 μM”; in data set [4] (same value as 3 μM) it was “ca. 2 μg/mL”.
Turning to `COc1cccc2c1C(=O)c1c(O)c3c(c(O)c1C2=O)C[C@@](O)(C(=O)CO)C[C@@H]3O[C@H]1C[C@H](N)[C@H](O)[C@H](C)O1` [ADM, adriamycin], the “Growth rate (% of control)” value was 93.4 % of control in data set [1] (ADM 100 ng/ml, 1st incubation 1 hr); 102 % of control in data set [1] (ADM 100 ng/ml, 1st incubation 3 hr); 92.0 % of control in data set [1] (ADM 100 ng/ml, 1st incubation 6 hr); 88.1 % of control in data set [1] (ADM 300 ng/ml, 1st incubation 1 hr); 100 % of control in data set [1] (ADM 300 ng/ml, 1st incubation 6 hr).
